# Results published in US9446039B2, “Aminoheteroaryl compounds as MTH1 inhibitors” (CEMM—FORSCHUNGSZENTRUM FÜR MOLEKULARE MEDIZIN GMBH, priority 2012, dated 2016).
# What was measured:
# Type in all cases: binding
# [1] = biological target: SW480 colon carcinoma cells lysate proteins (Homo sapiens, UniProt Q14240); settings: PreyGene EIF4A2; SW480 cells
# [2] = biological target: T1, SW480 colon carcinoma cells lysate proteins (Homo sapiens, UniProt Q15758); settings: PreyGene SLC1A5
# T1 sequence (Q15758 1-541): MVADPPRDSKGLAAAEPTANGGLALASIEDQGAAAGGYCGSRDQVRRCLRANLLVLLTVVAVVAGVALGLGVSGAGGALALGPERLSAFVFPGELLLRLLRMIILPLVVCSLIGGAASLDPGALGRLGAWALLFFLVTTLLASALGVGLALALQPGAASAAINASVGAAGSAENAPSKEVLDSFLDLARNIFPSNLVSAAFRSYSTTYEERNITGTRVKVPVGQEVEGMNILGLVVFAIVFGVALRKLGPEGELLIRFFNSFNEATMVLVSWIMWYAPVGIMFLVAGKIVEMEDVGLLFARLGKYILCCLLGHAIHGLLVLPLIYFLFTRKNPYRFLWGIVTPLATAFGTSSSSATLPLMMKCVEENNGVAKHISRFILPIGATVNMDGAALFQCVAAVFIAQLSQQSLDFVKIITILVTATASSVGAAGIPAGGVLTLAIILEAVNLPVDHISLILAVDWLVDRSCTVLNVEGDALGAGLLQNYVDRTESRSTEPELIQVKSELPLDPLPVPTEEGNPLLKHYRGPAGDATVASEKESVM
# [3] = biological target: T2, SW480 colon carcinoma cells lysate proteins (Homo sapiens, UniProt Q14019); settings: PreyGene COTL1
# T2 sequence (Q14019 1-142): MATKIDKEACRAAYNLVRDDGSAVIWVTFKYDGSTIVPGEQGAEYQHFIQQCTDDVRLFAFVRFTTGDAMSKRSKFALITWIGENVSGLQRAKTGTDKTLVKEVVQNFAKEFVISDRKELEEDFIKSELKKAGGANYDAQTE
# [4] = biological target: SW480 colon carcinoma cells lysate proteins (Homo sapiens, UniProt O43399); settings: PreyGene TPD52L2
# [5] = biological target: T3, SW480 colon carcinoma cells lysate proteins (Homo sapiens, UniProt P30043); settings: PreyGene BLVRB
# T3 sequence (P30043 1-206): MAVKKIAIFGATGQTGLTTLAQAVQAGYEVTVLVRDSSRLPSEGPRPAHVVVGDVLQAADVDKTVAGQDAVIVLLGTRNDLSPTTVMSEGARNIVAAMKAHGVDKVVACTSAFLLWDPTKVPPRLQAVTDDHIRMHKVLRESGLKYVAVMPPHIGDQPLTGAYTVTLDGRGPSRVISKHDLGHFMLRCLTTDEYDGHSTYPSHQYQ
# [6] = biological target: SW480 colon carcinoma cells lysate proteins (Homo sapiens, UniProt P12004); settings: PreyGene PCNA
# [7] = biological target: T4, SW480 colon carcinoma cells lysate proteins (Homo sapiens, UniProt P50395); settings: PreyGene GDI2
# T4 sequence (P50395 1-445): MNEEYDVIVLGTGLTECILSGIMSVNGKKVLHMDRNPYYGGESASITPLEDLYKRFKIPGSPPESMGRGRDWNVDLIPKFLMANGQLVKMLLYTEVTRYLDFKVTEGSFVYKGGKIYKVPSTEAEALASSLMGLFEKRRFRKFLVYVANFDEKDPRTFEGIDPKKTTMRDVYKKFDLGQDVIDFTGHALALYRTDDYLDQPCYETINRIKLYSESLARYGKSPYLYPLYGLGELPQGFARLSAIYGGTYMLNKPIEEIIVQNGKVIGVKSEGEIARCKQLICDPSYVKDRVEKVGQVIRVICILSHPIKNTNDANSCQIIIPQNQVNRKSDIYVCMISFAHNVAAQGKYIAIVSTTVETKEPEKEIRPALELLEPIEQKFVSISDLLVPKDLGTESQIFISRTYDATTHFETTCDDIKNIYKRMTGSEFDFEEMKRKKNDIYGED
# [8] = biological target: T5, SW480 colon carcinoma cells lysate proteins (Homo sapiens, UniProt Q14498); settings: PreyGene RBM39
# T5 sequence (Q14498 1-530): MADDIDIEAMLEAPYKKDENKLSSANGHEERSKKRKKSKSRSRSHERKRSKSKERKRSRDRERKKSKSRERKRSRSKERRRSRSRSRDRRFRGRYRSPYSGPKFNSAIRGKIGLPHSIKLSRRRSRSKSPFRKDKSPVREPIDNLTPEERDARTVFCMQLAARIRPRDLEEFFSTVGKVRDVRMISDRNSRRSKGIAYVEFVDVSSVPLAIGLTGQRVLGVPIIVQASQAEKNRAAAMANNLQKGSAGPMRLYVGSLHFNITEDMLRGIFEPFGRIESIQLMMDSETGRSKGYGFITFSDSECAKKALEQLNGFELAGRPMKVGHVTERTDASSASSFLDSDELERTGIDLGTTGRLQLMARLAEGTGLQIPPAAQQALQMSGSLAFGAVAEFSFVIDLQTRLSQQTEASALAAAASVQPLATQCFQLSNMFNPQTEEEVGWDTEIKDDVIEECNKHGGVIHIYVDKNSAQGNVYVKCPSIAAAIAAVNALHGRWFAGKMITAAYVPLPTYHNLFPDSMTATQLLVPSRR
# SW480 colon carcinoma cells lysate proteins (Homo sapiens, UniProt P12004), sequence (P12004 whole entry): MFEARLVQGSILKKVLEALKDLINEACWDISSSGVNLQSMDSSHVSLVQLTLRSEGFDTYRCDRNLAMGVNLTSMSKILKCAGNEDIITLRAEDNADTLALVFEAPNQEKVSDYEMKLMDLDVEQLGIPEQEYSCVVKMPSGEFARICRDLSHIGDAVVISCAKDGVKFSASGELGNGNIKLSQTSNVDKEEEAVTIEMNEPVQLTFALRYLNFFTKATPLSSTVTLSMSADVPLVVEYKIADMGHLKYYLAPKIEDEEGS
# SW480 colon carcinoma cells lysate proteins (Homo sapiens, UniProt O43399), sequence (O43399 whole entry): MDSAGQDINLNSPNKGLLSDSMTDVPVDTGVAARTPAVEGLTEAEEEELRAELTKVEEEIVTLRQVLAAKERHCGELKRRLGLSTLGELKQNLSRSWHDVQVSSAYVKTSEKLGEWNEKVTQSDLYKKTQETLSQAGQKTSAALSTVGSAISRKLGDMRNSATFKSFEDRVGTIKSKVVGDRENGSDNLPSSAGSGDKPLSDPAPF
# SW480 colon carcinoma cells lysate proteins (Homo sapiens, UniProt Q14240), sequence (Q14240 whole entry): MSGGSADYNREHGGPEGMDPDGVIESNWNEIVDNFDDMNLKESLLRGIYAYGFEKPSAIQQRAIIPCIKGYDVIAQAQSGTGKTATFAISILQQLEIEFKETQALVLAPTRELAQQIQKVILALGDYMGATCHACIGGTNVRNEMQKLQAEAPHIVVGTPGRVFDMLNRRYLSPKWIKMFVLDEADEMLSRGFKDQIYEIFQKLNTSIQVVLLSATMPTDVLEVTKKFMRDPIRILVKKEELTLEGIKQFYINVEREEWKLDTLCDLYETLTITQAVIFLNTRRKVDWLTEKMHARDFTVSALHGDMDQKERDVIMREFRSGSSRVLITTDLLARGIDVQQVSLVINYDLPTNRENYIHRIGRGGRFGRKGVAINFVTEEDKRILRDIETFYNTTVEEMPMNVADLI
smiles,measurement,setting,value
C[C@H](Oc1cc(-c2cnn(C3CCNCC3)c2)cnc1N)c1c(Cl)ccc(F)c1Cl [(5)-crizotinib],AvgP,[1],0
same,SC.Exp. 1-1,[1],1
same,SC.Exp. 1-2,[1],1
same,SC.Exp. 2-1,[1],0
same,SC.Exp. 2-2,[1],1
same,SC.Exp. Sum,[1],3
same,AvgP,[2],0.227
same,SC.Exp. 1-1,[2],1
same,SC.Exp. 1-2,[2],0
same,SC.Exp. 2-1,[2],3
same,SC.Exp. 2-2,[2],2
same,Sum (SC.Exp.),[2],6
same,AvgP,[3],0.4372
same,SC.Exp. 1-1,[3],5
same,SC.Exp. 1-2,[3],4
same,SC.Exp. 2-1,[3],0
same,SC.Exp. 2-2,[3],0
same,Sum (SC.Exp.),[3],9
same,AvgP,[4],0.191
same,SC.Exp. 1-1,[4],0
same,SC.Exp. 1-2,[4],2
same,SC.Exp. 2-1,[4],0
same,SC.Exp. 2-2,[4],0
same,Sum (SC.Exp.),[4],2
same,AvgP,[5],0.1915
same,SC.Exp. 1-1,[5],0
same,SC.Exp. 1-2,[5],2
same,SC.Exp. 2-1,[5],0
same,SC.Exp. 2-2,[5],0
same,Sum (SC.Exp.),[5],2
same,AvgP,[6],0.3137
same,SC.Exp. 1-1,[6],2
same,SC.Exp. 1-2,[6],1
same,SC.Exp. 2-1,[6],0
same,SC.Exp. 2-2,[6],0
same,Sum (SC.Exp.),[6],3
same,AvgP,[7],0.1854
same,SC.Exp. 1-1,[7],4
same,SC.Exp. 1-2,[7],0
same,SC.Exp. 2-1,[7],0
same,SC.Exp. 2-2,[7],0
same,Sum (SC.Exp.),[7],4
same,AvgP,[8],0.4214
same,SC.Exp. 1-1,[8],4
same,SC.Exp. 1-2,[8],3
same,SC.Exp. 2-1,[8],0
same,SC.Exp. 2-2,[8],0
same,Sum (SC.Exp.),[8],7
